Drawing on paper PMC3301443 (Scientific Reports, 2012), this text covers Km for 3 compounds.

One assay relates to KDHba. Type of assay: biochemical, Burkholderia ambifaria. As to conditions: aldehyde oxidation.
The next assay has as its target T1, PadA (Escherichia coli, UniProt P80668).
T1 sequence (P80668 1-499): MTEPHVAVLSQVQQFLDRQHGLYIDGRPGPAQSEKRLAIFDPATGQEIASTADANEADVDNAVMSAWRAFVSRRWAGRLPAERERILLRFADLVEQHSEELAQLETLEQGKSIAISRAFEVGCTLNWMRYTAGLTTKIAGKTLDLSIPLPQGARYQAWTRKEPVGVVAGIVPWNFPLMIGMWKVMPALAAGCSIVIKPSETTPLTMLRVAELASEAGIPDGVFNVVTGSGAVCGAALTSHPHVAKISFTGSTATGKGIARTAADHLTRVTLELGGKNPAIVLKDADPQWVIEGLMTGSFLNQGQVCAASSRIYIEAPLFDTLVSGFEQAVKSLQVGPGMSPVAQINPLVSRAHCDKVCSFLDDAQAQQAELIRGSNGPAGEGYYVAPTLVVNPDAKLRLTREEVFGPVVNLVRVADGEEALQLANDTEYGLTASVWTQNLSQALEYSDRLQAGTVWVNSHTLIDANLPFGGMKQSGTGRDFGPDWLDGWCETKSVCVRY
Briefly: in vitro enzyme kinetics. Type of assay: biochemical. The settings on record: aldehyde oxidation.

For `CC(C)C=O` [isobutanal], the Km in the assay on KDHba is 34500 µM.

`CC(C)CCC=O` [isohexanal]: the Km with KDHba is 520 µM.

For the compound `CC(C)CC=O` [isopentanal], the Km at PadA turned out to be 1950 µM.
